In ChEMBL document CHEMBL3132798, “Ketorolac beats ketoprofen: lower photodecarboxylation, photohemolysis and phototoxicity” (Medchemcomm, 2013):

Assays:
[1] = Phototoxicity against human skin fibroblasts at 1 to 100 uM measured after 14 hrs incubation and 24 hrs after initial 14 hrs incubation by MTS assay; conditions: skin fibroblast
[2] = Photohemolytic activity against human erythrocytes after 15 mins in presence of 81197.4 mW/m2 of UVA light; assay type: ADME, cell-based; conditions: erythrocyte, 0.25 h
[3] = Photohemolytic activity against human erythrocytes at 60 uM after 15 mins in presence of 81197.4 mW/m2 of UVA light; assay type: ADME, cell-based, Erythrocyte

Row | Structure (SMILES) | Activity [1] | Activity [2] | hemolysis at 0.25 h, 60 µM ([3]; erythrocytes, read-out: Activity) | Activity ([3]; erythrocyte, 0.25 h, 60 µM)
1 | CCc1cccc(C(=O)c2ccccc2)c1 | Non-toxic | Dose-dependent effect | – | –
2 | O=C(c1ccccc1)c1ccc2n1CCC2C(=O)O (configuration not stated) [KETOROLAC] | Non-toxic | – | 20% | –
3 | O=C(c1ccccc1)c1ccc2n1CCC2 | Non-toxic | – | – | Non-toxic
4 | CC(C(=O)O)c1cccc(C(=O)c2ccccc2)c1 (configuration not stated) [KETOPROFEN] | Non-toxic | – | – | –
